The test system of assay [1] is Hypomyces mycophilus IFO 6785 strain. Nature of the assay: D-amino acid production and optical purity from N-acetyl-DL-amino acid by washed fungal cells. In kind it is cell-based. As to conditions: Hypomyces mycophilus IFO 6785 cells; 0.1% substrate, pH 7.5, 30° C., 24 hours. As for the experimental part: (§1) A platinum loopful of Hypomyces rosellus IFO 6911 strain, Hypomyces sepulcralis IFO 9102 strain, or Hypomyces mycophilus IFO 6785 strain was inoculated into 25 ml of YM medium (containing 0.3% yeast extract, 0.3% malt extract, 0.5% peptone, and 2.0% glucose; pH 6.0) in a 500-ml shouldered flask. The fungi were shake-cultured at 24° C. for 3 days. After culturing, a 5-ml aliquot of the culture medium was centrifuged in a refrigerated centrifuge to collect the fungal cells. The cells were washed with physiological saline solution (5 ml), and collected by centrifugation again. A reaction solution (containing 0.1% N-acetyl-DL-amino acid shown in Table 2 below in Tris-HCl buffer, pH 7.5) was added to the cells thus collected. The mixture was incubated in a 5-ml test tube with shaking at 30° C. for 24 hours. D-Amino acid thus produced was assayed by high-performance liquid chromatography (column, CROWNPAK CR (Daicel Chemical); column temperature, 26° C.; mobile phase, HClO4 aqueous solution pH 2.0; flow rate, 1 ml/min; and detection, 200 nm) and examined for the optical purity.

For assay [2], the system named is Hypomyces rosellus IFO 6911 strain. The assay is described as above. As to conditions: Hypomyces rosellus IFO 6911 cells; 0.1% substrate, pH 7.5, 30° C., 24 hours. In kind it is cell-based. As for the experimental part:
as §1

Assay [3] concerns Hypomyces sepulcralis IFO 9102 strain. The description is as above. As to conditions: Hypomyces sepulcralis IFO 9102 cells; 0.1% substrate, pH 7.5, 30° C., 24 hours. In kind it is cell-based. As for the experimental part: as §1
Assay [4] has as its system D-aminoacylase (crude enzyme) of Auricularia auriculajudae IFO 5949. The assay can be described thus: Crude enzyme activity for each N-Ac-D-amino acid substrate. As to conditions: Auricularia auriculajudae IFO 5949 crude enzyme; 20 mM substrate, 1 mM CoCl2, 50 mM phosphate buffer pH 7.0. The assay is classed as biochemical. As for the experimental part: (§2) Auricularia auriculajudae IFO 5949, Pythium aphanidermaatum IFO 7030, and Menisporopsis novaezelandiae IFO 9179 were each inoculated into sterilized media (100 ml each) (Czapek Dox Broth for IFO 5949, YM1 medium for IFO 7030, and POTATO DEXTROSE BROTH for IFO 9179) in 500-ml Erlenmeyer flasks. The fungi were cultured on a rotary shaker at 210 rpm at 24° C. for 7 days and collected by centrifugation using a […] centrifuge with a RPR10-2 rotor at 8,000 rpm (12,500×g) for 20 min. […] Disrupted cells thus obtained were centrifuged using a […] centrifuge with a RPR20-2 rotor at 17,500 rpm (38,000×g) for 30 min at 4° C. to obtain the supernatant as the crude enzyme. […] Figures in the table denote the amount (mM) of D-amino acids produced from the corresponding N-acetyl-D-amino acids. The D-aminoacylase activity was detected in all the strains tested, producing D-amino acid from the corresponding N-acetyl-D-amino acid.

Assay [5] deals with D-aminoacylase (crude enzyme) of Menisporopsis novaezelandiae IFO 9179. The assay is described as above. The assay is classed as biochemical. As to conditions: Menisporopsis novaezelandiae IFO 9179 crude enzyme; 20 mM substrate, 1 mM CoCl2, 50 mM phosphate buffer pH 7.0. How it is done: as §2
In assay [6] the test system is D-aminoacylase (crude enzyme) of Pythium aphanidermaatum IFO 7030. The assay is described as above. In kind it is biochemical. Conditions: Pythium aphanidermaatum IFO 7030 crude enzyme; 20 mM substrate, 1 mM CoCl2, 50 mM phosphate buffer pH 7.0. As for the experimental part:
as §2

For a further assay, the system named is D-aminoacylase. Nature of the assay: Substrate specificity of purified D-aminoacylase (TNBS method). Conditions: for percentage of the specific activity compared with that for N-acetyl-D-methionine taken as 100%, D-enantiomer: 20 mM substrate, 50 mM Tris-HCl pH 7.5, 30° C., 20 min. In kind it is biochemical, Hypomyces mycophilus IFO 6785. How it is done:
The enzyme activity was assayed by determining the amount of amino acid produced using the TNBS method and the HPLC method. In the TMBS method, 100 mM Na2B4O7 (0.5 ml) was added to a sample solution containing amino acid (0.5 ml), 20 μl of 110 mM TNBS (trinitrobenzenesulfonic acid) was then added, and the resulting mixture was quickly stirred. After 5 min, 100 mM NaH2PO4 containing 1.5 mM Na2SO3 (2 ml) was added to the reaction mixture to terminate the color reaction, and the absorbance at 420 nm was measured. HPLC was performed by subjecting a sample solution containing amino acid to high-performance liquid chromatography using an ODS column (column, Wakosil II 5C18 (4.6 dia.×250 mm) (Wako Pure Chemical); eluent, CH3CN/50 mM KH2PO4. H3PO4 (pH 2.5)=2:8; detection, A280 nm; and flow rate, 1.0 ml/min). The retention times were 3.5 min for D-tryptophan and 9.8 min for N-acetyl-D-tryptophan. Using D-tryptophan as the assay standard, one unit (or U) of the enzyme was defined as the amount of the enzyme required to produce 1 μmol of D-tryptophan at 30° C. for 1 min.
Substrate specificity of the enzyme was expressed as the percentage of the specific activity compared with that for N-acetyl-D-methionine taken as 100%. N-chloroacetyl-D-phenylalanine, N-acetyl-D-valine, N-acetyl-D-phenylalanine, N-acetyl-D-tryptophan, N-acetyl-D-leucine, N-acetyl-L-valine, N-acetyl-L-phenylalanine, N-acetyl-L-tryptophan, and N-acetyl-L-leucine substrates were used for the comparison. The enzyme reaction was performed in 50 mM Tris-HCl (pH 7.5) containing 1 µl of the enzyme solution and 20 mM of each substrate (total volume 1.0 ml) at 30° C. for 20 min, and terminated by adding 0.5 ml of a TCA reaction terminating solution according to Tsai et al. (consisting of 110 mM trichloroacetic acid, 220 mM sodium acetate, and 330 mM acetic acid). The enzyme activity was assayed by the TNBS method as described in Example 4(2).

A further assay concerns Fusarium solani IFO 9974. The assay can be described thus: D-amino acid production from N-acetyl-D-amino acid by washed fungal cells. In kind it is cell-based. Conditions: Fusarium solani IFO 9974 cells; 0.1% substrate, Tris-HCl pH 7.5, 30° C., 24 hours. How it is done: (§3) A platinum loopful of Hypomyces aurantius IFO 6847 strain, Hypomyces broomeanus IFO 9164 strain, Hypomyces rosellus IFO 6911 strain, Hypomyces chrysospermus IFO 6817 strain, Hypomyces sepulcralis IFO 9102 strain, Hypomyces subiculosus IFO 6892 strain, Hypomyces mycophilus ATCC 76474 or IFO 6785 strain, or Fusarium solani IFO 9974 or IFO 9975 strain was inoculated into 25 ml of YM medium (containing 0.3% yeast extract, 0.3% malt extract, 0.5% peptone, and 2.0% glucose, pH 6.0) in a 500-ml shouldered flask. The fungi were shake-cultured at 24° C. for 3 days. After culturing, a 5-ml aliquot of the culture medium was centrifuged in a refrigerated centrifuge to collect the fungal cells. The cells were washed with physiological saline solution (5 ml) and collected by centrifugation again. A reaction solution (containing 0.1% N-acetyl-D-amino acid shown in Table 1 below in Tris-HCl buffer, pH 7.5) was then added to the cells thus collected. The mixture was incubated in a 5-ml test tube with shaking at 30° C. for 24 hours.
(§4) D-Amino acid thus produced was determined by high-performance liquid chromatography (column, CROWNPAK CR (Daicel Chemical); column temperature, 26° C.; cooled in ice for only valine; mobile phase, HClO4 aqueous solution, pH 2.0; flow rate, 1 ml/min; and detection, 200 nm).

Assay [7] concerns Fusarium solani IFO 9975 strain. The assay is described as above. The assay is classed as cell-based. As to conditions: Fusarium solani IFO 9975 cells; 0.1% substrate, Tris-HCl pH 7.5, 30° C., 24 hours. As for the experimental part:
as §3, §4

Assay [8] has as its system Hypomyces aurantius IFO 6847 strain. The description is as above. The assay is classed as cell-based. As to conditions: Hypomyces aurantius IFO 6847 cells; 0.1% substrate, Tris-HCl pH 7.5, 30° C., 24 hours. As for the experimental part:
as §3, §4

The test system of assay [9] is Hypomyces broomeanus IFO 9164 strain. The description is as above. In kind it is cell-based. Conditions: Hypomyces broomeanus IFO 9164 cells; 0.1% substrate, Tris-HCl pH 7.5, 30° C., 24 hours. How it is done: as §3, §4
For assay [10], the system named is Hypomyces chrysospermus IFO 6817 strain. Described as above. In kind it is cell-based. As to conditions: Hypomyces chrysospermus IFO 6817 cells; 0.1% substrate, Tris-HCl pH 7.5, 30° C., 24 hours. As for the experimental part: as §3, §4
Assay [11] relates to Hypomyces mycophilus ATCC 76474. The description is as above. In kind it is cell-based. Conditions: Hypomyces mycophilus ATCC 76474 cells; 0.1% substrate, Tris-HCl pH 7.5, 30° C., 24 hours. As for the experimental part: as §3, §4
Assay [12] concerns Hypomyces mycophilus IFO 6785 strain. The assay is described as above. The assay is classed as cell-based. Conditions: Hypomyces mycophilus IFO 6785 cells; 0.1% substrate, Tris-HCl pH 7.5, 30° C., 24 hours. How it is done:
as §3, §4

The subject of assay [13] is Hypomyces rosellus IFO 6911 strain. The assay is described as above. In kind it is cell-based. Conditions: Hypomyces rosellus IFO 6911 cells; 0.1% substrate, Tris-HCl pH 7.5, 30° C., 24 hours. As for the experimental part:
as §3, §4

For assay [14], the system named is Hypomyces sepulcralis IFO 9102 strain. The description is as above. The assay is classed as cell-based. As to conditions: Hypomyces sepulcralis IFO 9102 cells; 0.1% substrate, Tris-HCl pH 7.5, 30° C., 24 hours. As for the experimental part: as §3, §4
Assay [15] relates to Hypomyces subiculosus IFO 6892 strain. The description is as above. The assay is classed as cell-based. Conditions: Hypomyces subiculosus IFO 6892 cells; 0.1% substrate, Tris-HCl pH 7.5, 30° C., 24 hours. As for the experimental part: as §3, §4

As to `CC(=O)NC(Cc1ccccc1)C(=O)O` (racemic) [N-acetyl-DL-phenylalanine], the “D-amino acid produced from N-acetyl-DL-amino acid” value in assay [1] stood at 0.16 mg/mL; in assay [2] it was 0.21 mg/mL; in [3], 0.12 mg/mL.
Take `CC(=O)N[C@H](C)C(=O)O` [N-acetyl-D-alanine, N-Acetyl-D-alanine]: the “amount of D-amino acids produced from the corresponding N-acetyl-D-amino acids” value in assay [4] came to 1.46 mM; in assay [5], 0.09 mM; in [6], 0.29 mM. In addition, in the assay with D-aminoacylase, the “percentage of the specific activity compared with that for N-acetyl-D-methionine taken as 100%, D-enantiomer” value was 0%.
On to `CSCC[C@@H](NC(C)=O)C(=O)O` [N-acetyl-D-methionine], for which the “D-amino acid produced from N-acetyl-D-amino acid” value in the assay on Fusarium solani IFO 9974 is 0.04 mg/mL; in assay [7] it was 0.02 mg/mL; in assay [8], 0.02 mg/mL; in assay [9] it was 0.01 mg/mL; in assay [10], 0.12 mg/mL; in assay [11], 0.10 mg/mL. For the same molecule, the “D-amino acid produced from N-acetyl-D-amino acid” value amounted to 0.71 mg/mL in assay [12], 0.14 mg/mL in [13], 0.24 mg/mL in assay [14] and 0.03 mg/mL in assay [15]. In addition, the “amount of D-amino acids produced from the corresponding N-acetyl-D-amino acids” value in [4] was 2.45 mM; in assay [5], 0.89 mM; in assay [6] it was 0.90 mM. Also, the “percentage of the specific activity compared with that for N-acetyl-D-methionine taken as 100%, D-enantiomer” value in the assay on D-aminoacylase was 100%. In the assay on D-aminoacylase (summary of Table 5), the “activity of the enzyme for the substrate (in words)” value is recorded as “very active”.
`CC(=O)NC(Cc1c[nH]c2ccccc12)C(=O)O` (racemic) [N-acetyl-DL-tryptophan]: the “D-amino acid produced from N-acetyl-DL-amino acid” value in assay [1] was 0.10 mg/mL; in assay [2], 0.24 mg/mL; in assay [3], 0.13 mg/mL.
